SMILES strings stand for the structures. Values after ≈ are worked out from the molar mass of the structure shown.

Common to all, as to type: functional
The test system of assay [1] is Klebsiella pneumoniae. The experiment in a line: Antibacterial activity against Klebsiella pneumoniae ATCC 13883 assessed as diameter of inhibition zone at 1 mg/ml after 24 hrs by agar well diffusion method. The conditions noted are these: ATCC 13883, 24 h, read-out: DIZ. For orientation: In agar diffusion tests the substance spreads into inoculated agar from a disc or well.

The subject of assay [2] is Priestia megaterium. Kind of assay: Antibacterial activity against Bacillus megaterium ATCC 9885 assessed as diameter of inhibition zone at 1 mg/ml after 24 hrs by agar well diffusion method. As to conditions: ATCC 9885, 24 h, read-out: DIZ.
In assay [3] the test system is Pseudomonas aeruginosa. The experiment in a line: Antibacterial activity against Pseudomonas aeruginosa ATCC 27953 assessed as diameter of inhibition zone at 1 mg/ml after 24 hrs by agar well diffusion method. The conditions noted are these: ATCC 27953, 24 h, read-out: DIZ.
In assay [4] the test system is Escherichia coli. The experiment in a line: Antibacterial activity against Escherichia coli ATCC 25922 assessed as diameter of inhibition zone at 1 mg/ml after 24 hrs by agar well diffusion method. As to conditions: ATCC 25922, 24 h, read-out: DIZ.
The subject of assay [5] is Staphylococcus aureus. Kind of assay: Antibacterial activity against Staphylococcus aureus ATCC 29213 assessed as diameter of inhibition zone at 1 mg/ml after 24 hrs by agar well diffusion method. The conditions noted are these: ATCC 29213, 24 h, read-out: DIZ.
Assay [6] relates to Candida albicans. Kind of assay: Antifungal activity against Candida albicans NRRLY-477 assessed as diameter of inhibition zone at 1 mg/ml after 24 hrs by agar well diffusion method. As to conditions: NRRLY-477, 24 h, read-out: DIZ.
For assay [7], the system named is Saccharomyces cerevisiae. The experiment in a line: Antifungal activity against Saccharomyces cerevisiae assessed as diameter of inhibition zone at 1 mg/ml after 24 hrs by agar well diffusion method. The conditions noted are these: read-out: DIZ.
Assay [8] relates to Bacillus subtilis. The experiment in a line: Antibacterial activity against Bacillus subtilis ATCC 6633 assessed as diameter of inhibition zone at 1 mg/ml after 24 hrs by agar well diffusion method. The conditions noted are these: ATCC 6633, 24 h, read-out: DIZ.
The subject of assay [9] is Micrococcus luteus. Kind of assay: Antibacterial activity against Sarcina lutea assessed as diameter of inhibition zone at 1 mg/ml after 24 hrs by agar well diffusion method. The conditions noted are these: read-out: DIZ.
In assay [10] the test system is Proteus vulgaris. Kind of assay: Antibacterial activity against Proteus vulgaris assessed as diameter of inhibition zone at 1 mg/ml after 24 hrs by agar well diffusion method. As to conditions: read-out: DIZ.
The subject of assay [11] is Pseudomonas aeruginosa. The experiment in a line: Antibacterial activity against Pseudomonas aeruginosa ATCC 27953 after 24 hrs by two fold serial dilution technique. The conditions noted are these: ATCC 27953, 24 h.
In assay [12] the test system is Priestia megaterium. The experiment in a line: Antibacterial activity against Bacillus megaterium ATCC 9885 after 24 hrs by two fold serial dilution technique. The conditions noted are these: ATCC 9885, 24 h.
Assay [13] deals with Bacillus subtilis. The experiment in a line: Antibacterial activity against Bacillus subtilis ATCC 6633 after 24 hrs by two fold serial dilution technique. As to conditions: ATCC 6633, 24 h.
Assay [14] relates to Klebsiella pneumoniae. The experiment in a line: Antibacterial activity against Klebsiella pneumoniae ATCC 13883 after 24 hrs by two fold serial dilution technique. The conditions noted are these: ATCC 13883, 24 h.
For assay [15], the system named is Micrococcus luteus. The experiment in a line: Antibacterial activity against Sarcina lutea after 24 hrs by two fold serial dilution technique.
The subject of assay [16] is Saccharomyces cerevisiae. The experiment in a line: Antifungal activity against Saccharomyces cerevisiae after 24 hrs by two fold serial dilution technique.
The subject of assay [17] is Staphylococcus aureus. The experiment in a line: Antibacterial activity against Staphylococcus aureus ATCC 29213 after 24 hrs by two fold serial dilution technique. As to conditions: ATCC 29213, 24 h.
The subject of assay [18] is Proteus vulgaris. The experiment in a line: Antibacterial activity against Proteus vulgaris after 24 hrs by two fold serial dilution technique.
For assay [19], the system named is Candida albicans. Kind of assay: Antifungal activity against Candida albicans NRRLY-477 after 24 hrs by two fold serial dilution technique. The conditions noted are these: NRRLY-477, 24 h.
Assay [20] relates to Escherichia coli. The experiment in a line: Antibacterial activity against Escherichia coli ATCC 25922 after 24 hrs by two fold serial dilution technique. The conditions noted are these: ATCC 25922, 24 h.

Consider `CCCCCCNC(=S)Nc1ccc(C(=O)NCC(=O)O)cc1`, for which the zone of inhibition at 1000 µg/mL amounted to 12 mm in the assay on Klebsiella pneumoniae [1]; 23 mm with Priestia megaterium [2]; 0 mm in the assay on Pseudomonas aeruginosa [3]; 11 mm in the assay on Escherichia coli [4]; 0 mm in the assay with Staphylococcus aureus [5]; 0 mm in the assay with Candida albicans [6]. Also, the zone of inhibition at 1000 µg/mL in the assay with Saccharomyces cerevisiae [7] was 9 mm; with Bacillus subtilis [8] it was 9 mm; in the assay with Micrococcus luteus [9], 24 mm; in the assay with Proteus vulgaris [10], 0 mm.

Take `O=C(O)CNC(=O)c1ccc(NC(=S)Nc2ccccc2)cc1`: the zone of inhibition at 1000 µg/mL in the assay with Klebsiella pneumoniae [1] worked out at 0 mm; with Priestia megaterium [2], 13 mm; with Pseudomonas aeruginosa [3] it was 12 mm; in the assay with Escherichia coli [4], 19 mm; with Staphylococcus aureus [5], 0 mm; in the assay on Candida albicans [6], 0 mm. The zone of inhibition at 1000 µg/mL in the assay with Saccharomyces cerevisiae [7] came out at 0 mm; in the assay on Bacillus subtilis [8], 17 mm; with Micrococcus luteus [9], 0 mm; in the assay with Proteus vulgaris [10], 0 mm.

Turning to `Cc1ccc(NC(=S)Nc2ccc(C(=O)NCC(=O)O)cc2)cc1`, the zone of inhibition at 1000 µg/mL with Klebsiella pneumoniae [1] was 0 mm; in the assay with Priestia megaterium [2], 19 mm; in the assay on Pseudomonas aeruginosa [3] it was 0 mm; with Escherichia coli [4], 9 mm; with Staphylococcus aureus [5], 0 mm; with Candida albicans [6], 18 mm. Further, the zone of inhibition at 1000 µg/mL in the assay on Saccharomyces cerevisiae [7] is 0 mm; in the assay on Bacillus subtilis [8], 0 mm; with Micrococcus luteus [9], 25 mm; in the assay with Proteus vulgaris [10], 20 mm.

The term MIC denotes the lowest concentration that inhibits growth of the organism. Low values mean inhibition by little substance, high ones a need for much substance. Consider `O=C(O)CNC(=O)c1ccc(NC(=S)Nc2ccc(NC(=S)Nc3ccc(C(=O)NCC(=O)O)cc3)cc2)cc1`, for which the MIC in the assay with Pseudomonas aeruginosa [11] came out at 12.5 µg/mL (≈ 21.5 µM); in the assay on Priestia megaterium [12], 12.5 µg/mL (≈ 21.5 µM); with Bacillus subtilis [13], 12.5 µg/mL (≈ 21.5 µM); against Klebsiella pneumoniae [14], 12.5 µg/mL (≈ 21.5 µM); against Micrococcus luteus [15] it was 50 µg/mL (≈ 86.1 µM); in the assay with Saccharomyces cerevisiae [16], 25 µg/mL (≈ 43.1 µM). For the same compound, the MIC with Staphylococcus aureus [17] turned out to be 50 µg/mL (≈ 86.1 µM); against Proteus vulgaris [18], 25 µg/mL (≈ 43.1 µM); in the assay with Candida albicans [19], 12.5 µg/mL (≈ 21.5 µM); against Escherichia coli [20], 25 µg/mL (≈ 43.1 µM). The zone of inhibition at 1000 µg/mL in the assay on Klebsiella pneumoniae [1] stood at 16 mm; with Priestia megaterium [2] it was 24 mm; with Pseudomonas aeruginosa [3], 22 mm; in the assay on Escherichia coli [4], 24 mm; in the assay with Staphylococcus aureus [5], 20 mm; in the assay with Candida albicans [6] it was 26 mm. Further, the zone of inhibition at 1000 µg/mL with Saccharomyces cerevisiae [7] was 26 mm; in the assay with Bacillus subtilis [8], 31 mm; in the assay with Micrococcus luteus [9], 10 mm; with Proteus vulgaris [10] it was 18 mm.

Turning to `CCCCNC(=S)Nc1ccc(C(=O)NCC(=O)O)cc1`, the zone of inhibition at 1000 µg/mL came out at 20 mm in the assay with Klebsiella pneumoniae [1]; 16 mm in the assay with Priestia megaterium [2]; 22 mm in the assay on Pseudomonas aeruginosa [3]; 22 mm in the assay on Escherichia coli [4]; 22 mm in the assay on Staphylococcus aureus [5]; 10 mm in the assay on Candida albicans [6]. Besides, the zone of inhibition at 1000 µg/mL with Saccharomyces cerevisiae [7] amounted to 18 mm; in the assay with Bacillus subtilis [8], 13 mm; in the assay on Micrococcus luteus [9], 9 mm; in the assay with Proteus vulgaris [10], 21 mm.

These data come from ChEMBL document CHEMBL2385069, “Thiourea derivatives incorporating a hippuric acid moiety: synthesis and evaluation of antibacterial and antifungal activities” (2013).
